Test results published in patent US12625150B2, “Treatment of, and differential diagnosis between, ACTH-dependent Cushing's syndrome and ACTH-independent Cushing's syndrome” (Corcept Therapeutics Incorporated, priority 2019, dated 2026).
Where “and” joins values, the source holds several entries; their conditions need not be identical. Equal values may be shown once.

Columns and labels:
[1] = system: serum ACTH and cortisol levels; test: Serum ACTH and cortisol levels and ACTH:cortisol ratio in Cushing's syndrome patients administered mifepristone; format: in vivo, human
[2] = system: serum ACTH and cortisol levels; test: Serum ACTH and cortisol levels and ACTH:cortisol ratio in Cushing's syndrome patients administered relacorilant; format: in vivo, human; settings: for change in ACTH:cortisol ratio following treatment: relacorilant 100-400 mg/day, six weeks
Description: Cushing's syndrome (CS) patients were examined and serum levels of ACTH and cortisol were measured in blood samples obtained from the patients. The serum ACTH and cortisol levels determined prior to administration of glucocorticoid receptor antagonist (GRA) therapy were used to calculate baseline ACTH:cortisol ratios (basal ACTH:cortisol ratios). […] The patients then received oral glucocorticoid receptor antagonist (GRA) therapy (either mifepristone or relacorilant, typically daily) for at least six weeks. The serum ACTH and cortisol levels determined after these six weeks of GRA therapy were used to calculate after-GRA ACTH:cortisol ratios. Three patients were treated with relacorilant (100 milligrams (mg) per day, titrated up to 400 mg per day, as tolerated; see Table 1). […] The results of these clinical measurements in Cushing's syndrome patients administered relacorilant (100 milligrams (mg) per day, titrated up to 400 mg per day, as tolerated) are presented in the Table 1: […]

SMILES	Basal ACTH ([1]; individual patients with confirmed pituitary CS (ACTH dependent), serum, prior to mifepristone)	Day 14 Serum Cortisol ([1]; individual patients with confirmed pituitary CS, day 14 of oral mifepristone 300 mg/day titrated up to 900 mg/day)	Basal Serum Cortisol ([1]; individual patients with confirmed pituitary CS, prior to mifepristone)	Day 14 ACTH ([1]; individual patients with confirmed pituitary CS, serum, day 14 of oral mifepristone 300 mg/day titrated up to 900 mg/day)	Week 6 Basal ACTH ([1]; individual patients with confirmed pituitary CS, serum, week 6 of oral mifepristone 300 mg/day titrated up to 900 mg/day)	Week 6 Serum Cortisol ([1]; individual patients with confirmed pituitary CS, week 6 of oral mifepristone 300 mg/day titrated up to 900 mg/day)	change in ACTH:cortisol ratio following treatment ([2]; CS patient with pituitary tumor (ACTH-dependent Cushing's syndrome))	Week 6 Serum Cortisol ([2]; adrenal CS patients (ACTH-independent), after six weeks of oral relacorilant 100 mg/day titrated up to 400 mg/day)	Baseline Serum Cortisol ([2]; adrenal CS patients (ACTH-independent), prior to relacorilant)	Week 6 Serum Cortisol ([2]; pituitary CS patient (ACTH-dependent), after six weeks of oral relacorilant 100 mg/day titrated up to 400 mg/day) [µg/dL]	Baseline Serum Cortisol ([2]; pituitary CS patient (ACTH-dependent), prior to relacorilant) [µg/dL]	Week 6 ACTH ([2]; pituitary CS patient (ACTH-dependent), serum, after six weeks of oral relacorilant 100 mg/day titrated up to 400 mg/day) [pg/mL]	Baseline ACTH ([2]; pituitary CS patient (ACTH-dependent), serum, prior to relacorilant) [pg/mL]	Post-Treatment Ratio (ACTH:cortisol) ([2]; pituitary CS patient, ACTH in pg/ml divided by cortisol in μg/dL, after six weeks of oral relacorilant 100-400 mg/day)	Baseline Ratio (ACTH:cortisol) ([2]; pituitary CS patient, ACTH in pg/ml divided by cortisol in μg/dL, prior to relacorilant)	change in ACTH:cortisol ratio following treatment ([2]; two CS patients with adrenal tumors (ACTH-independent Cushing's syndrome))
CC#C[C@]1(O)CC[C@H]2[C@@H]3CCC4=CC(=O)CCC4=C3[C@@H](c3ccc(N(C)C)cc3)C[C@@]21C [mifepristone, 11β-(4-dimethylaminophenyl)-17β-hydroxy-17α-(1-propynyl)-estra-4,9-dien-3-one]	16 pg/mL and 21 pg/mL and 20 pg/mL and 7 pg/mL and 15 pg/mL and 8 pg/mL	486 nmol/L and 955 nmol/L and 914 nmol/L and 900 nmol/L and 809 nmol/L and 613 nmol/L	337 nmol/L and 632 nmol/L and 734 nmol/L and 317 nmol/L and 494 nmol/L and 502 nmol/L	34 pg/ml (2×) and 53 pg/ml and 21 pg/ml and 30 pg/ml and 22 pg/ml	57 pg/mL and 52 pg/mL and 65 pg/mL and 24 pg/mL and 49 pg/mL and 20 pg/mL	679 nmol/L and 999 nmol/L and 1151 nmol/L and 955 nmol/L and 731 nmol/L and 654 nmol/L										
Cn1cc(S(=O)(=O)N2CCC3=Cc4c(cnn4-c4ccc(F)cc4)C[C@]3(C(=O)c3cc(C(F)(F)F)ccn3)C2)cn1 [relacorilant, (R)-(1-(4-fluorophenyl)-6-((1-methyl-1H-pyrazol-4-yl)sulfonyl)-4,4a,5,6,7,8-hexahydro-1H-pyrazolo[3,4-g]isoquinolin-4a-yl)(4-(trifluoromethyl)pyridin-2-yl)methanone]							increased	14.9 µg/dL and 17.1 µg/dL	13.6 µg/dL and 16.2 µg/dL	28.7	20.7	39.8	23.9	1.39	1.15	decreased
